Measurements as given in US20040191913A1, “Method of evaluation of antioxidation ability by measuring redox balance in vivo” (priority 2002, published 2004).

Assays:
[1] = Radical removability by magnetic spin resonator (attenuation of the DMPO-OOL signal); assay type: biochemical; conditions: 10 mM DMPO; for IC50 / 50% Inhibition Concentration: DMPO-OOL signal intensity, 1 minute after start of reaction; for IC50: read-out: 50% Inhibition Concentration
Description: The antioxidation index is obtained by indexing the radical removability, R that is determined by the use of a magnetic spin resonator in the manner mentioned below, within a range of from 1 to 10points. The determination with a magnetic spin resonator is effected as follows: The DMPO-OOL radical resulting from trapping of a butylhydroperoxide radical by a spin trapping agent, 5,5-dimethyl-1-pyrroline-N-oxide (DMPO) is quantitatively determined by the use of a magnetic spin resonator, and a serum sample is added to the system to determine the degree of signal intensity attenuation in the system. […] Radical Removability R=[DMPO]/50% Inhibition Concentration.
Preferably, the determination with a magnetic spin resonator is effected as follows: 100 mM butylhydroperoxide, 50 μg/ml methemoglobin, 10 mM DMPO and 0.1 mM diethylenetriamine-pentaacetic acid are reacted in 10 mM phosphate buffer. One minute after the start of the reaction, the DMPO-OOL signal intensity is measured by the use of a magnetic spin resonator.

[2] = system: Leptin receptor-defective, natural diabetic db/db mice; experiment: Animal test: 0.02% astaxanthin feed in diabetic db/db mice; assay type: in vivo
Description: The quantitative determination of 8-OHdG is effected through enzyme immunoassay using a monoclonal antibody.
Leptin receptor-defective, natural diabetic db/db mice (animal model similar to human type-II diabetes) were used in the test. […] A control group of leptin receptor-defective, natural diabetic db/db mice was not given astaxanthin.

| Compound | R (Radical Removability = [DMPO]/50% Inhibition Concentration) [1] | IC50 [1] | also measured |
| --- | --- | --- | --- |
| O=C1O[C@H]([C@@H](O)CO)C(O)=C1O [Ascorbic acid] | 227 | 44 µM | – |
| CC1=C(/C=C/C(C)=C/C=C/C(C)=C/C=C/C=C(C)/C=C/C=C(C)/C=C/C2=C(C)C(=O)[C@@H](O)CC2(C)C)C(C)(C)C[C@H](O)C1=O [Astaxanthin, astaxanthin] | – | – | 8-OHdG discharge in urine (in words) ([2]; 3 months): significantly inhibits; development of diabetic nephropathy (in words) ([2]; 3 months): significantly retards; 8-OHdG in Urine ([2]; fed for 3 months, enzyme immunoassay, p < 0.05 vs control group): 135.6 ± 41.1 ng/day; Albumin in Urine ([2]; fed for 3 months, p < 0.05 vs control group): 68.6 ± 13.4 µg/day |
| N[C@@H](CCC(=O)N[C@@H](CS)C(=O)NCC(=O)O)C(=O)O [Glutathione] | 24 | 410 µM | – |
| O=c1[nH]c(=O)c2[nH]c(=O)[nH]c2[nH]1 [Uric acid] | 28 | 360 µM | – |
| Cc1c(C)c2c(c(C)c1O)CC[C@@](C)(CCC[C@H](C)CCC[C@H](C)CCCC(C)C)O2 [α-Tocopherol] | 14 | 700 µM | – |
| CC1=C(/C=C/C(C)=C/C=C/C(C)=C/C=C/C=C(C)/C=C/C=C(C)/C=C/C2=C(C)CCCC2(C)C)C(C)(C)CCC1 [β-Carotene] | – | – | 50% Inhibition Concentration [1]: >0.2 mg/mL |
| Catalase | – | – | 50% Inhibition Concentration [1]: >4,000 U/ml |
